Molecules are shown by their SMILES.

The subject of the assay is human IFN γ promoter. Nature of the assay: IFN γ promoter reporter assay (dual luciferase, pIFN γ-Luc/pRL-TK) in transfected Jurkat cells. It counts as cell-based. As for the experimental part:
Jurkat cells were transfected with pIFN γ-Luc and pRL-TK, or pIL-2 and pRL-TK, plasmid DNA constructs using electroporation and then treated with different plant crude extracts, which were prepared using boiling water. The fold induction was expressed in arbitrary units as the ratio of firefly luciferase activity (encoded by pIFN γ-Luc) to that of Renilla luciferase (pRL-TK).
A 615 base pair (bp) DNA fragment containing the human IFN γ promoter region from bp −487 to +128 (SEQ ID NO:1) was amplifed by polymerase chain reaction (PCR) using the specific primers (5′-[…]-3′ (SEQ ID NO:3) and 5′-[…]-3′ (SEQ ID NO:4))and human genomic DNA, isolated from blood, as a template. […]
Firefly and Renilla luciferase activities were measured in cell lysates made from transfected T-cells that were exposed to a plant extract or phytocompound, or underwent negative control treatment. […] The protein concentration in each lysate was determined using a Bradford reagent protein assay (Bio-Rad, Calif.).
Samples of ten micrograms of cell lysate protein were subjected to a dual luciferase reporter assay according to the manufacturer's instructions (Promega, Wis.). Firefly and Renilla luciferase activities were determined in each sample with a luminometer. […] The IFN γ or IL-2 promoter activity for each sample was calculated as a ratio of firefly luciferase to Renilla luciferase-dependent luminescence.

Take `O=C(/C=C/c1ccc(O)c(O)c1)O[C@@H]1[C@H](O)C[C@@](O)(C(=O)O)C[C@H]1OC(=O)/C=C/c1ccc(O)c(O)c1` [4,5-di-O-caffeoylquinic acid]: the “IFN γ promoter activity” value (concentration not given) was “did not induce a significant increase”.
On to `COc1ccc(-c2oc3cc(O[C@@H]4O[C@H](CO)[C@@H](O)[C@H](O)[C@H]4O)c(OC)c(O)c3c(=O)c2OC)cc1O` [Centaurein, centaurein], for which the “IFN γ promoter activity” value (100 μg/mL, relative to untreated cells, p<0.001) is “highly significant increase”.
